In ChEMBL document CHEMBL5579902, “Medullins A-H, Sesquiterpenes from Perenniporia medulla-panis, and Their Cellular Signaling Mechanism in HDF Cells” (J Nat Prod, 2024) one finds Activity data, which are given here for seven compounds.

Active and inactive are the calls of the source. The rule behind the calls is not given here.

Data set [1] concerns NHDF. Briefly: Cytotoxicity against HDF cells assessed as reduction in cell viability at 10 uM incubated for 24 to 48 hrs by MTT assay. Format: toxicity, cell-based. The settings on record: human, time 24-48 hrs. A general note: Formazan colour is commonly taken as a measure of viable cells.
In data set [2] the target is Mitogen-activated protein kinase; ERK1/ERK2 (Homo sapiens) (UniProt P27361+P28482). Briefly: Induction of ERK1/2 phosphorylation in HDF cells at 10 uM incubated at 0.5 to 24 hrs by Western blot analysis. Format: cell-based. The settings on record: filed as activator, time 0.5-24 hrs.
Sequence of Mitogen-activated protein kinase; ERK1/ERK2 (Homo sapiens) (P27361 whole entry, looked up): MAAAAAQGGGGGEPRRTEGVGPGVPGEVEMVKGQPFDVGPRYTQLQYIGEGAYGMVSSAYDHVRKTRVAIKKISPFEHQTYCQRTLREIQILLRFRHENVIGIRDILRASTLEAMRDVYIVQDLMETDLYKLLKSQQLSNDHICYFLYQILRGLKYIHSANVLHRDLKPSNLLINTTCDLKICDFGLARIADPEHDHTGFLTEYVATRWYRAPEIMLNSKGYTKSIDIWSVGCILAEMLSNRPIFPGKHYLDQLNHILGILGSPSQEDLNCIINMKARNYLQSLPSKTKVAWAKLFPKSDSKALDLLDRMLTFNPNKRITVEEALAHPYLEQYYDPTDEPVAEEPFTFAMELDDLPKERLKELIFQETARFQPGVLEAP
Sequence of Mitogen-activated protein kinase; ERK1/ERK2 (Homo sapiens) (P28482 whole entry, looked up): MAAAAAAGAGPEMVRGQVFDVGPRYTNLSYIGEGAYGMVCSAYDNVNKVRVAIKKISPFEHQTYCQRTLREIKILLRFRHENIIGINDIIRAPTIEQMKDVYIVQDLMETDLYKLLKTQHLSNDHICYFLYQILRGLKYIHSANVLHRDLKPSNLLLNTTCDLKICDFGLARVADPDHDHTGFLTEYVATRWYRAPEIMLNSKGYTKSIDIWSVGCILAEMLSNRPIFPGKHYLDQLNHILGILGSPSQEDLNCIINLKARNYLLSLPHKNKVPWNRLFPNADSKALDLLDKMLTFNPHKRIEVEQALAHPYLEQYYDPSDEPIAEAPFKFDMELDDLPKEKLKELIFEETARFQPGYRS
Data set [3] deals with HDF. Put plainly: Induction of p38 phosphorylation in HDF cells at 10 uM incubated at 0.5 to 24 hrs by Western blot analysis. Type of data set: cell-based. The settings on record: Homo sapiens, time 0.5-24 hrs. For orientation: A western blot detects proteins with antibodies after separation by electrophoresis.
Data set [4] concerns HDF. Put plainly: Induction of JNK phosphorylation in HDF cells at 10 uM incubated at 0.5 to 24 hrs by Western blot analysis. Format: cell-based. The settings on record: Homo sapiens, filed as activator, time 0.5-24 hrs.

`CC(=O)O[C@@H]1[C@H](O)C2=C(C(=O)N([C@@H](C)C(=O)O)C2)[C@@]2(C)CCCC(C)(C)[C@H]12`: the Activity entry in data set [1] was “Non-Toxic”. Besides, the result in data set [2] and in data set [4] was Active. Besides, the result in data set [3] was inactive.

As for `CC(=O)O[C@@H]1[C@H](O)C2=C(C(=O)N(CC(=O)O)C2)[C@@]2(C)CCCC(C)(C)[C@H]12`, in data set [1], the Activity result is given as “Non-Toxic”. Moreover, the outcome in data set [2] and in data set [4] was Active. Also, the result in data set [3] was inactive.

For `CC(=O)O[C@@H]1[C@H](O)C2=C(C(=O)N([C@H](C(=O)O)C(C)C)C2)[C@@]2(C)CCCC(C)(C)[C@H]12`, the Activity result in data set [1] is “Non-Toxic”. The outcome in data set [2] and in data set [4] was Active. Moreover, the outcome in data set [3] was inactive.

For `CC[C@H](C)[C@@H](C(=O)O)N1CC2=C(C1=O)[C@@]1(C)CCCC(C)(C)[C@@H]1[C@H](OC(C)=O)[C@@H]2O`, the Activity result in data set [1] is “Non-Toxic”. For the same compound, the outcome in data set [2] and in data set [4] was Active. The outcome in data set [3] was inactive.

For `CC(=O)O[C@@H]1[C@H](O)C2=C(C(=O)N([C@@H](CC(C)C)C(=O)O)C2)[C@@]2(C)CCCC(C)(C)[C@H]12`, the Activity entry in data set [1] was “Non-Toxic”. Besides, the result in data set [2] and in data set [4] was Active. Also, the outcome in data set [3] was inactive.

`CC(=O)O[C@@H]1[C@H](O)C2=C(C(=O)N([C@H](C(=O)O)[C@@H](C)O)C2)[C@@]2(C)CCCC(C)(C)[C@H]12`: the Activity entry in data set [1] was “Non-Toxic”. Moreover, the outcome in data set [2] and in data set [4] was Active. The result in data set [3] was inactive.

With `CC(=O)O[C@@H]1[C@H](O)C2=C(C(=O)N([C@@H](Cc3ccccc3)C(=O)O)C2)[C@@]2(C)CCCC(C)(C)[C@H]12`, the Activity entry in data set [1] is recorded as “Non-Toxic”. In addition, the outcome in data set [2] and in data set [4] was Active. Also, in data set [3], the outcome was inactive.
